From patent US20230278972A1, “SUBSTITUTED HALOALKYL SULFONANILIDE HERBICIDES” (FMC Corporation, priority 2020, published 2023)

Tests used:
Type in all cases: in vivo
[1] = tested on: barnyardgrass (Echinochloa crus-galli); assay: Test A preemergence, barnyardgrass; details: Preemergence; for Plant response rating, Barnyardgrass: 0 to 100 scale (0 no effect, 100 complete control)
Method in brief: (§1)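 Compounds in non-phytotoxic solvent with surfactant. Soil: loam/sand. Preemergence via directed soil spray after seeding; postemergence on seedlings 2–10 cm, one- to two-leaf.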

[2] = tested on: ragweed (common ragweed, Ambrosia artemisiifolia); assay: Test A preemergence, ragweed; details: Preemergence; for Plant response rating, Ragweed: 0 to 100 scale (0 no effect, 100 complete control); for Ragweed plant response rating: visual injury on 0 to 100 scale (0 no effect, 100 complete control), approximately 10 days
Method in brief: as §1

[3] = tested on: galium (catchweed bedstraw, Galium aparine); assay: Test A postemergence, galium; details: Postemergence, 0 to 100 scale (0 no effect, 100 complete control); for Plant response rating, Galium: 125 g ai/ha; for Galium plant response rating: 500 g ai/ha, visual injury vs untreated controls after approx. 10 days
Method in brief: (§2)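 Preemergence: seeded pots of loam plus sand received a directed soil spray. Postemergence: seedlings at one to two leaves, 2 to 10 cm high, were oversprayed. Each compound was formulated in a non-phytotoxic solvent mix that included a surfactant.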

[4] = tested on: ragweed (common ragweed, Ambrosia artemisiifolia); assay: Test A postemergence, ragweed; details: Postemergence, 0 to 100 scale (0 no effect, 100 complete control); for Plant response rating, Ragweed: 125 g ai/ha; for Ragweed plant response rating: 500 g ai/ha, visual injury vs untreated controls after approx. 10 days
Method in brief: as §1

[5] = tested on: Foxtail, Giant (giant foxtail, Setaria faberi); assay: Test A preemergence, Foxtail, Giant; details: Preemergence; for Plant response rating, Foxtail, Giant: 0 to 100 scale (0 no effect, 100 complete control); for Foxtail, Giant plant response rating: visual injury on 0 to 100 scale (0 no effect, 100 complete control), approximately 10 days
Method in brief: as §1

[6] = tested on: wheat (Triticum aestivum); assay: Test A postemergence, wheat; details: Postemergence, 0 to 100 scale (0 no effect, 100 complete control); for Plant response rating, Wheat: 125 g ai/ha; for Wheat plant response rating: 500 g ai/ha, visual injury vs untreated controls after approx. 10 days
Method in brief: as §2

kochia (Bassia scoparia) [7] = assay: Test A preemergence, kochia; details: Preemergence; for Plant response rating, Kochia: 0 to 100 scale (0 no effect, 100 complete control); for Kochia plant response rating: visual injury on 0 to 100 scale (0 no effect, 100 complete control), approximately 10 days
Method in brief: as §1

kochia (Bassia scoparia) [8] = assay: Test A postemergence, kochia; details: Postemergence, 0 to 100 scale (0 no effect, 100 complete control); for Plant response rating, Kochia: 125 g ai/ha; for Kochia plant response rating: 500 g ai/ha, visual injury vs untreated controls after approx. 10 days
Method in brief: as §1

[9] = tested on: pigweed (Amaranthus retroflexus); assay: Test A postemergence, pigweed; details: Postemergence, 0 to 100 scale (0 no effect, 100 complete control); for Plant response rating, Pigweed: 125 g ai/ha; for Pigweed plant response rating: 500 g ai/ha, visual injury vs untreated controls after approx. 10 days
Method in brief: as §1

[10] = tested on: Ryegrass, Italian (Italian ryegrass, Lolium multiflorum); assay: Test A preemergence, Ryegrass, Italian; details: Preemergence; for Plant response rating, Ryegrass, Italian: 0 to 100 scale (0 no effect, 100 complete control); for Ryegrass, Italian plant response rating: visual injury on 0 to 100 scale (0 no effect, 100 complete control), approximately 10 days
Method in brief: as §1

[11] = tested on: pigweed (Amaranthus retroflexus); assay: Test A preemergence, pigweed; details: for Plant response rating, Pigweed: 0 to 100 scale (0 no effect, 100 complete control); for Pigweed plant response rating: visual injury on 0 to 100 scale (0 no effect, 100 complete control), approximately 10 days
Source text: Seeds of plant species selected from barnyardgrass (Echinochloa crus-galli), kochia (Bassia scoparia), ragweed (common ragweed, Ambrosia artemisiifolia), Ryegrass, Italian (Italian ryegrass, Lolium multiflorum), Foxtail, Giant (giant foxtail, Setaria faberi), and pigweed (Amaranthus retroflexus) were planted into a blend of loam soil and sand and treated preemergence with a directed soil spray using test chemicals formulated in a non-phytotoxic solvent mixture which included a surfactant. At the same time, plants selected from these weed species and also wheat (Triticum aestivum), corn (Zea mays), blackgrass (Alopecurus myosuroides), and galium (catchweed bedstraw, Galium aparine) were planted in pots containing the same blend of loam soil and sand and treated with postemergence applications of test chemicals formulated in the same manner. Plants ranged in height from 2 to 10 cm and were in the one- to two-leaf stage for the postemergence treatment. […] A dash (-) response means no test result.

[12] = tested on: blackgrass (Alopecurus myosuroides); assay: Test A postemergence, blackgrass; details: Postemergence, 0 to 100 scale (0 no effect, 100 complete control); for Plant response rating, Blackgrass: 125 g ai/ha; for Blackgrass plant response rating: 500 g ai/ha, visual injury vs untreated controls after approx. 10 days
Method in brief: as §1

corn (Zea mays) = assay: Test A postemergence, corn; details: Postemergence, 0 to 100 scale (0 no effect, 100 complete control); for Plant response rating, Corn: 125 g ai/ha; for Corn plant response rating: 500 g ai/ha, visual injury vs untreated controls after approx. 10 days
Method in brief: as §1

[13] = tested on: Foxtail, Giant (giant foxtail, Setaria faberi); assay: Test A postemergence, Foxtail, Giant; details: Postemergence, 0 to 100 scale (0 no effect, 100 complete control); for Plant response rating, Foxtail, Giant: 125 g ai/ha; for Foxtail, Giant plant response rating: 500 g ai/ha, visual injury vs untreated controls after approx. 10 days
Method in brief: as §1

[14] = tested on: Ryegrass, Italian (Italian ryegrass, Lolium multiflorum); assay: Test A postemergence, Ryegrass, Italian; details: Postemergence, 0 to 100 scale (0 no effect, 100 complete control); for Plant response rating, Ryegrass, Italian: 125 g ai/ha; for Ryegrass, Italian plant response rating: 500 g ai/ha, visual injury vs untreated controls after approx. 10 days
Method in brief: as §1

[15] = 125 g ai/ha, visual injury, approx. 10 days

Compound | Plant response rating, Barnyardgrass [1, 15] | Plant response rating, Barnyardgrass ([1]; 500 g ai/ha) | Plant response rating, Ragweed [2, 15] | Plant response rating, Galium [3] | Galium plant response rating [3] | Plant response rating, Ragweed [4] | Ragweed plant response rating [4] | Plant response rating, Foxtail, Giant [5, 15] | Plant response rating, Wheat [6] | Wheat plant response rating [6] | Plant response rating, Kochia (kochia (Bassia scoparia) [7]; [15]) | Plant response rating, Kochia (kochia (Bassia scoparia) [8]) | Kochia plant response rating (kochia (Bassia scoparia) [8]) | Plant response rating, Pigweed [9] | Pigweed plant response rating [9] | Plant response rating, Ryegrass, Italian [10, 15] | Blackgrass plant response rating [12] | Corn plant response rating (corn (Zea mays)) | Foxtail, Giant plant response rating [13] | Ryegrass, Italian plant response rating [14] | further results
Cc1cc(C)c(N(S(=O)(=O)C(F)(F)F)S(=O)(=O)C(F)(F)F)cc1C1=NOC(C)(CCl)C1 (stereo not drawn) [Compound 227] | 60 | 90 | 30 | 40 | 90 | 0 | 10 | 90 | 70 | 40 | 60 | 10 | 60 | 20 | 50 | 40 | 20 | 0 | 20 | 0 | Ragweed plant response rating ([2]; 500 g ai/ha): 80; Foxtail, Giant plant response rating ([5]; 500 g ai/ha): 100; Kochia plant response rating (kochia (Bassia scoparia) [7]; 500 g ai/ha): 90; Ryegrass, Italian plant response rating ([10]; 500 g ai/ha): 100; Plant response rating, Pigweed [11, 15]: 50; Pigweed plant response rating ([11]; 500 g ai/ha): 80; Plant response rating, Blackgrass [12]: 0; Plant response rating, Corn (corn (Zea mays)): 10; Plant response rating, Foxtail, Giant [13]: 0; Plant response rating, Ryegrass, Italian [14]: 0
Cc1cc(C)c(N(S(=O)(=O)C(F)(F)F)S(=O)(=O)C(F)(F)F)cc1-c1cc(Cl)nn(C)c1=O [Compound 74] | – | 100 | – | – | 90 | – | 30 | – | – | 70 | – | – | 90 | – | 90 | – | 50 | 10 | 80 | 70 | Barnyardgrass plant response rating ([1]; 125 g ai/ha, visual injury on 0 to 100 scale (0 no effect, 100 complete control), approximately 10 days): 90; Ragweed plant response rating ([2]; 125 g ai/ha): 70; Plant response rating, Ragweed ([2]; 500 g ai/ha): 90; Plant response rating, Galium ([3]; visual injury approx. 10 days): 50; Plant response rating, Ragweed ([4]; visual injury approx. 10 days): 0; Foxtail, Giant plant response rating ([5]; 125 g ai/ha): 100; Plant response rating, Foxtail, Giant ([5]; 500 g ai/ha): 100; Plant response rating, Wheat ([6]; visual injury approx. 10 days): 60; Kochia plant response rating (kochia (Bassia scoparia) [7]; 125 g ai/ha): 70; Plant response rating, Kochia (kochia (Bassia scoparia) [7]; 500 g ai/ha): 100; Plant response rating, Kochia (kochia (Bassia scoparia) [8]; visual injury approx. 10 days): 30; Plant response rating, Pigweed ([9]; visual injury approx. 10 days): 80; Ryegrass, Italian plant response rating ([10]; 125 g ai/ha): 80; Plant response rating, Ryegrass, Italian ([10]; 500 g ai/ha): 100; Pigweed plant response rating ([11]; 125 g ai/ha): 60; Plant response rating, Pigweed ([11]; 500 g ai/ha): 100; Plant response rating, Blackgrass ([12]; visual injury approx. 10 days): 40; Plant response rating, Corn (corn (Zea mays); visual injury approx. 10 days): 0; Plant response rating, Foxtail, Giant ([13]; visual injury approx. 10 days): 40; Plant response rating, Ryegrass, Italian ([14]; visual injury approx. 10 days): 20
Cc1cc(Cl)c(N(S(=O)(=O)C(F)(F)F)S(=O)(=O)C(F)(F)F)cc1C(=O)N1CCC(Cl)CC1 [Compound 200] | 30 | 100 | 40 | 60 | 90 | 0 | 30 | 90 | 20 | 70 | 60 | 10 | 40 | 60 | 90 | 30 | 0 | 20 | 20 | 20 | Plant response rating, Ragweed ([2]; 500 g ai/ha): 90; Plant response rating, Foxtail, Giant ([5]; 500 g ai/ha): 100; Plant response rating, Kochia (kochia (Bassia scoparia) [7]; 500 g ai/ha): 90; Plant response rating, Ryegrass, Italian ([10]; 500 g ai/ha): 90; Plant response rating, Pigweed [11, 15]: 100; Plant response rating, Pigweed ([11]; 500 g ai/ha): 100; Plant response rating, Blackgrass [12]: 0; Plant response rating, Corn (corn (Zea mays)): 0; Plant response rating, Foxtail, Giant [13]: 0; Plant response rating, Ryegrass, Italian [14]: 20
Cc1cc(C)c(N(S(=O)(=O)C(F)(F)F)S(=O)(=O)C(F)(F)F)cc1C1=NOC2(CCC2)C1 [Compound 196] | 0 | 90 | 0 | 60 | 80 | 0 | 30 | 30 | 0 | 0 | 70 | 10 | 20 | 30 | 50 | 20 | 0 | 0 | 0 | 30 | Plant response rating, Ragweed ([2]; 500 g ai/ha): 0; Plant response rating, Foxtail, Giant ([5]; 500 g ai/ha): 100; Plant response rating, Kochia (kochia (Bassia scoparia) [7]; 500 g ai/ha): 80; Plant response rating, Ryegrass, Italian ([10]; 500 g ai/ha): 70; Plant response rating, Pigweed [11, 15]: 50; Plant response rating, Pigweed ([11]; 500 g ai/ha): 100; Plant response rating, Blackgrass [12]: 0; Plant response rating, Corn (corn (Zea mays)): 0; Plant response rating, Foxtail, Giant [13]: 0; Plant response rating, Ryegrass, Italian [14]: 0
